# Experimental data: patent US20220202801A1, “USE OF COMPOUND IN PREPARATION OF DRUG FOR TREATING ATHEROSCLEROSIS” (GenEros Biopharma Ltd., priority 2019, published 2022)
# What was measured:
# VCAM-1 = test: Immunohistochemistry of aortic wall, VCAM-1; format: in vivo, mice; details: for aorta (VCAM-1) signal expression in blood vessels: IHC-P×400, single animal micrograph; for VCAM-1 average optical density: aortic wall
# Excerpt: (§1) Methods: SPF grade C57BL/6 ApoE −/−model mice were provided by Guangdong Medical Experimental Animal Center, laboratory animal production license No. SOCK (Guangdong) 2013-0002. Laboratory animal quality certificate number: 44007200048196). Mice were half male and half female, aged 8 to 12 weeks, and 72 animals in total. After four weeks of housing in a SPF-level animal facility, animals with less body weights were disposed. A total of 64 animals were randomly divided into 8 groups, 8 in each group, fed with 10% high-fat food, and received with different treatments. Animals were observed and administered with the medicines by gavage once daily. The body weights were measured once a week and continued for 58 days. […] The test sample was dissolved in dimethyl sulfoxide solution and prepared with 30% PEG300.
# (§2) After blood collection, the animals were sacrificed, and the aortic arch together with the heart and thoracic aorta were fixed with neutral formaldehyde and subject to pathological examination. The abdominal aorta was collected and quick-frozen in liquid nitrogen, and stored at −80° C.
# (§3) c) Immunohistochemistry: The thoracic aorta was sliced and detected by immunohistochemistry for the expression of CD68, intercellular adhesion molecule-1 (ICAM-1), and vascular cell adhesion Molecule-1 (VCAM-1).
# ApoE knockout mice [1] = test: Blood lipid metabolism TG, TCHO, HDL-c, LDL-c (Example 2); format: in vivo
# ApoE knockout mice [2] = test: Four blood lipids in serum of ApoE knockout mice (Example 1); format: in vivo; details: for HDL-C / LDL-C / TC / TG: serum
# Excerpt: as §1
# At the end of the experiment, animals were anesthetized with pentobarbital sodium. Blood was collected from the orbital venous plexus, and centrifuged at 3000 r/min at a low temperature for 10 min to separate the serum. The levels of total cholesterol TC, triglyceride TG, high-density lipoprotein HDL-C, and low-density lipoprotein LDL-C were measured, and the remaining serum was stored in a refrigerator at −80° C.
# Statistical analysis: Data were expressed as the mean plus or minus the standard deviation (x± s), and analyzed by SPSS21.0 statistical software. […] The level of test is α=0.05.
# ICAM-1 = test: Immunohistochemistry of aortic wall, ICAM-1; format: in vivo, mice; details: for aorta (ICAM-1) signal expression in blood vessels: IHC-P×400, single animal micrograph; for ICAM-1 average optical density: aortic wall
# Excerpt: as §1, §2, §3
# CD68 = test: Immunohistochemistry of aortic wall, CD68; format: in vivo, mice; details: for aorta (CD68) signal expression in blood vessels: IHC-P×400, single animal micrograph; for CD68 average optical density: aortic wall
# Excerpt: as §1, §2, §3
# [3] = 5 mg/kg gavage QD, listed as Nib1, 5 mg/kg
# [4] = 5 mg/kg gavage QD, listed as sample A, 5 mg/kg
# [5] = 10 mg/kg gavage QD, listed as sample A, 10 mg/kg
# [6] = half male and female, 2 mg/kg body weight
# [7] = half male and female, 5 mg/kg body weight
# [8] = half male and female, 10 mg/kg body weight
# [9] = ♀, 2 mg/kg gavage QD, 58 days, 2 mg/kg
# [10] = ♀, 2 mg/kg gavage QD, 58 days, listed as Nib1, 2 mg/kg
# [11] = ♀, 10 mg/kg gavage QD, 58 days, 10 mg/kg
# [12] = ♀, 10 mg/kg gavage QD, 58 days, listed as Nib1, 10 mg/kg
smiles,measurement,setting,value
O=c1[nH]c2ccccc2n1C1CCN(CCCC(c2ccc(F)cc2)c2ccc(F)cc2)CC1 [Sample A],aorta (VCAM-1) signal expression in blood vessels,VCAM-1; 2 mg/kg,low to medium
same,aorta (VCAM-1) signal expression in blood vessels,VCAM-1; 5 mg/kg,low to medium
same,aorta (VCAM-1) signal expression in blood vessels,VCAM-1; 10 mg/kg,low to medium
same,VCAM-1 average optical density,VCAM-1; 2 mg/kg gavage QD,1.41 ± 0.34 ×10^−2
same,VCAM-1 average optical density,"VCAM-1; 5 mg/kg gavage QD, 5 mg/kg",0.77 ± 0.46 ×10^−2
same,VCAM-1 average optical density,VCAM-1; [3],reduced expression
same,VCAM-1 average optical density,VCAM-1; [4],lower than the model control group
same,VCAM-1 average optical density,"VCAM-1; 10 mg/kg gavage QD, 10 mg/kg",0.49 ± 0.51 ×10^−2
same,VCAM-1 average optical density,VCAM-1; [5],lower than the model control group
same,effect on high-density lipoprotein (HDL-c) level compared with the vehicle group,ApoE knockout mice [1],significantly reduce
same,effect on low-density lipoprotein (LDL-c) level compared with the vehicle group,ApoE knockout mice [1],significantly reduce
same,effect on total cholesterol (TCHO) level compared with the vehicle group,ApoE knockout mice [1],significantly reduce
same,effect on triglyceride (TG) level compared with the vehicle group,ApoE knockout mice [1],significantly reduce
same,regulation on blood lipid levels (overall),"ApoE knockout mice [2]; Example 1, overall",have the effect of improving blood lipids
same,HDL-C,ApoE knockout mice [2]; [6],1.80 ± 0.62 mmol/L
same,LDL-C,ApoE knockout mice [2]; [6],6.23 ± 2.86 mmol/L
same,TC,ApoE knockout mice [2]; [6],19.86 ± 6.92 mmol/L
same,TG,ApoE knockout mice [2]; [6],1.18 ± 0.70 mmol/L
same,LDL-C,ApoE knockout mice [2]; [7],6.09 ± 2.12 mmol/L
same,TC,ApoE knockout mice [2]; [7],20.87 ± 6.13 mmol/L
same,TG,ApoE knockout mice [2]; [7],0.82 ± 0.17 mmol/L
same,HDL-C,"ApoE knockout mice [2]; half male and female, 5 mg/kg body weight, 5 mg/kg",1.63 ± 0.28 mmol/L
same,HDL-C,"ApoE knockout mice [2]; half male and female, 5 mg/kg body weight, listed as sample A, 5 mg/kg",lower
same,LDL-C,ApoE knockout mice [2]; [8],5.82 ± 2.13 mmol/L
same,TC,ApoE knockout mice [2]; [8],19.85 ± 6.26 mmol/L
same,TG,ApoE knockout mice [2]; [8],0.89 ± 0.20 mmol/L
same,HDL-C,"ApoE knockout mice [2]; half male and female, 10 mg/kg body weight, 10 mg/kg",1.62 ± 0.35 mmol/L
same,HDL-C,"ApoE knockout mice [2]; half male and female, 10 mg/kg body weight, listed as sample A, 10 mg/kg",lower
same,TG,"ApoE knockout mice [2]; ♀, 2 mg/kg gavage QD, 58 days",0.86 ± 0.16 mmol/L
same,LDL-C,ApoE knockout mice [2]; [9],3.86 ± 0.95 mmol/L
same,TC,ApoE knockout mice [2]; [9],13.88 ± 1.77 mmol/L
same,LDL-C,ApoE knockout mice [2]; [10],decreased
same,TC,ApoE knockout mice [2]; [10],decreased
same,LDL-C,"ApoE knockout mice [2]; ♀, 5 mg/kg gavage QD, 58 days",4.30 ± 0.39 mmol/L
same,TC,"ApoE knockout mice [2]; ♀, 5 mg/kg gavage QD, 58 days",15.41 ± 1.32 mmol/L
same,TG,"ApoE knockout mice [2]; ♀, 5 mg/kg gavage QD, 58 days",0.70 ± 0.11 mmol/L
same,TG,"ApoE knockout mice [2]; ♀, 10 mg/kg gavage QD, 58 days",0.76 ± 0.07 mmol/L
same,LDL-C,ApoE knockout mice [2]; [11],3.86 ± 0.38 mmol/L
same,TC,ApoE knockout mice [2]; [11],14.07 ± 0.64 mmol/L
same,LDL-C,ApoE knockout mice [2]; [12],decreased
same,TC,ApoE knockout mice [2]; [12],decreased
same,HDL-C,"ApoE knockout mice [2]; ♂, 2 mg/kg gavage QD, 58 days",2.26 ± 0.54 mmol/L
same,LDL-C,"ApoE knockout mice [2]; ♂, 2 mg/kg gavage QD, 58 days",8.60 ± 1.79 mmol/L
same,TC,"ApoE knockout mice [2]; ♂, 2 mg/kg gavage QD, 58 days",25.84 ± 3.63 mmol/L
same,TG,"ApoE knockout mice [2]; ♂, 2 mg/kg gavage QD, 58 days",1.51 ± 0.92 mmol/L
same,HDL-C,"ApoE knockout mice [2]; ♂, 5 mg/kg gavage QD, 58 days",1.83 ± 0.24 mmol/L
same,LDL-C,"ApoE knockout mice [2]; ♂, 5 mg/kg gavage QD, 58 days",7.87 ± 1.38 mmol/L
same,TC,"ApoE knockout mice [2]; ♂, 5 mg/kg gavage QD, 58 days",26.34 ± 2.50 mmol/L
same,TG,"ApoE knockout mice [2]; ♂, 5 mg/kg gavage QD, 58 days",0.94 ± 0.15 mmol/L
same,HDL-C,"ApoE knockout mice [2]; ♂, 10 mg/kg gavage QD, 58 days",1.92 ± 0.18 mmol/L
same,LDL-C,"ApoE knockout mice [2]; ♂, 10 mg/kg gavage QD, 58 days",7.78 ± 0.40 mmol/L
same,TC,"ApoE knockout mice [2]; ♂, 10 mg/kg gavage QD, 58 days",25.64 ± 1.32 mmol/L
same,TG,"ApoE knockout mice [2]; ♂, 10 mg/kg gavage QD, 58 days",1.02 ± 0.22 mmol/L
same,aorta (ICAM-1) signal expression in blood vessels,ICAM-1; 2 mg/kg,low to medium
same,aorta (ICAM-1) signal expression in blood vessels,ICAM-1; 5 mg/kg,low to medium
same,aorta (ICAM-1) signal expression in blood vessels,ICAM-1; 10 mg/kg,low to medium
same,ICAM-1 average optical density,"ICAM-1; 2 mg/kg gavage QD, 2 mg/kg",2.11 ± 1.53 ×10^−2
same,ICAM-1 average optical density,"ICAM-1; 2 mg/kg gavage QD, listed as sample A, 2 mg/kg",lower than the model control group
same,ICAM-1 average optical density,"ICAM-1; 5 mg/kg gavage QD, 5 mg/kg",2.31 ± 1.16 ×10^−2
same,ICAM-1 average optical density,ICAM-1; [3],reduced expression
same,ICAM-1 average optical density,ICAM-1; [4],lower than the model control group
same,ICAM-1 average optical density,"ICAM-1; 10 mg/kg gavage QD, 10 mg/kg",1.75 ± 1.46 ×10^−2
same,ICAM-1 average optical density,ICAM-1; [5],lower than the model control group
same,aorta (CD68) signal expression in blood vessels,CD68; 2 mg/kg,low to medium
same,aorta (CD68) signal expression in blood vessels,CD68; 5 mg/kg,low to medium
same,aorta (CD68) signal expression in blood vessels,CD68; 10 mg/kg,low to medium
same,CD68 average optical density,CD68; 2 mg/kg gavage QD,2.78 ± 2.01 ×10^−2
same,CD68 average optical density,CD68; 5 mg/kg gavage QD,1.39 ± 0.67 ×10^−2
same,CD68 average optical density,CD68; 10 mg/kg gavage QD,1.86 ± 1.60 ×10^−2
